This note sets out measurements from patent US9409907B2, “Inhibitor compounds” (Cancer Research Technology Limited, priority 2012, dated 2016).

Sequence of full length MPS1 (P33981 whole entry): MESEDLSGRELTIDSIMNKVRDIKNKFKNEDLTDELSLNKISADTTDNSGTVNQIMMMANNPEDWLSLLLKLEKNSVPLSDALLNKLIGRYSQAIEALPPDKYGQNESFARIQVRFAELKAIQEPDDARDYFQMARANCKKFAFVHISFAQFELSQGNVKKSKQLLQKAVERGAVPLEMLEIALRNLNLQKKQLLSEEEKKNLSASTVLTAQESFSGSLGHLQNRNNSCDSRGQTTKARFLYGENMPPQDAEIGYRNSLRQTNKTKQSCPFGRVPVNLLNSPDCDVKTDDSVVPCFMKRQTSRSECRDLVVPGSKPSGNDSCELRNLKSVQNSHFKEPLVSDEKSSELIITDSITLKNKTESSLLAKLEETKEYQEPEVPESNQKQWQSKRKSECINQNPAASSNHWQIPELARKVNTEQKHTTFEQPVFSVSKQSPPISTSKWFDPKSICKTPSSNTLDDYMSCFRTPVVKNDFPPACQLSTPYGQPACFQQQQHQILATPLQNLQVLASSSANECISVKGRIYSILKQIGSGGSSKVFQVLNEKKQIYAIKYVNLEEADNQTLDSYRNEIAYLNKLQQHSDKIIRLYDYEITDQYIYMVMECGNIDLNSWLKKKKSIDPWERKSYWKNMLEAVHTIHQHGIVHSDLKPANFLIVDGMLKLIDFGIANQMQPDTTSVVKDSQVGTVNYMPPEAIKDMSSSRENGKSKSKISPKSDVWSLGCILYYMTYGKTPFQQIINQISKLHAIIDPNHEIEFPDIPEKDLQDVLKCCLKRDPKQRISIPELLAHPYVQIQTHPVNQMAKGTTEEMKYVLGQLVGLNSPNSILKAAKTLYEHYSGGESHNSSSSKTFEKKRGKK

The experiment concerns the target full length MPS1 (Homo sapiens (Human), UniProt P33981). The experiment is described as follows: Measurement of inhibition of MPS1 kinase (Caliper EZ reader mobility-shift enzyme assay). The experiment is classed as biochemical. Particulars: full length MPS1 12.5 nM or 3 nM, H236 peptide 5 μM, ATP 10 μM, 60 min at room temperature. The protocol: Measurement of Inhibition of MPS1 Kinase
The reaction was carried out for 60 min at room temperature and stopped by the addition of buffer (10 μl) containing 20 mM EDTA, 0.05% (v/v) Brij-35, in 0.1M HEPES-buffered saline (Free acid, Sigma, UK). The plate was read on a Caliper EZ reader II (Caliper Life Sciences).
The % inhibition of the compounds is calculated relative to the means of selected control wells.
As usually defined, the IC50 is the concentration that gives 50% inhibition. As for `COc1cc(-c2cnn(C)c2)ccc1Nc1ncc2ccnc(N3CC4(CCOCC4)C3)c2n1` [Example 119, N-(2-methoxy-4-(1-methyl-1H-pyrazol-4-yl)phenyl)-8-(7-oxa-2-azaspiro[3.5]nonan-2-yl)pyrido[3,4-d]pyrimidin-2-amine], the IC50 was 3 nM. The result for `COc1cc(-c2cnn(C)c2)ccc1Nc1cc2c(-c3cnn(C)c3)nccc2cn1` [Example 103, N-(2-methoxy-4-(1-methyl-1H-pyrazol-4-yl)phenyl)-5-(1-methyl-1H-pyrazol-4-yl)-2,6-naphthyridin-3-amine] reads 12 nM; that for `CS(=O)(=O)c1ccc(Nc2ncc3ccnc(N4CCC5(COC5)C4)c3n2)c(Cl)c1` [Example 199], 25 nM. The result for `COc1cc(C(=O)N2CC(OC)C2)ccc1Nc1cc2c(-c3ccn(C)n3)cccc2cn1` [Example 12, (3-methoxy-4-((5-(1-methyl-1H-pyrazol-3-yl)isoquinolin-3-yl)amino)phenyl)(3-methoxyazetidin-1-yl)methanone] reads 26 nM. The result for `COc1cc(-c2cnn(C)c2)ccc1Nc1ncc2ccnc(N3CC(F)(F)C3)c2n1` [Example 63, 8-(3,3-difluoroazetidin-1-yl)-N-(2-methoxy-4-(1-methyl-1H-pyrazol-4-yl)phenyl)pyrido[3,4-d]pyrimidin-2-amine] reads 25 nM; that for `COc1cc(-c2cnn(C)c2)ccc1Nc1ncc2ccnc(NC3CCN(C)CC3)c2n1` [Example 113, N^2-(2-methoxy-4-(1-methyl-1H-pyrazol-4-yl)phenyl)-N^8-(1-methylpiperidin-4-yl)pyrido[3,4-d]pyrimidine-2,8-diamine], 9 nM; that for `CCOc1cc(-c2cnn(C)c2)ccc1Nc1ncc2ccnc(N3CCC4(COC4)C3)c2n1` [Example 159, N-(2-ethoxy-4-(1-methyl-1H-pyrazol-4-yl)phenyl)-8-(2-oxa-6-azaspiro[3.4]octan-6-yl)pyrdio[3,4-d]pyrimidin-2-amine], 5 nM. On to `COc1cc(-c2cnn(C)c2)ccc1Nc1cc2c(-c3cnn(C)c3)cccc2cn1` [Example 16, N-(2-methoxy-4-(1-methyl-1H-pyrazol-4-yl)phenyl)-5-(1-methyl-1H-pyrazol-4-yl)isoquinolin-3-amine], for which the IC50 came out at 71 nM. The result for `COc1cc(-c2cnn(C)c2)ccc1Nc1ncc2ccnc(N3CCC(C)C3)c2n1` (stereo not drawn) [Example 56, N-(2-methoxy-4-(1-methyl-1H-pyrazol-4-yl)phenyl)-8-(3-methylpyrrolidin-1-yl)pyrido[3,4-d]pyrimidin-2-amine] reads 10 nM; that for `COCCn1c(-c2ccc(Nc3ncc4ccnc(NCC(C)(C)OC)c4n3)c(OC)c2)cnc1C` [Example 186], 4 nM. `COc1cc(-c2cnn(C)c2)ccc1Nc1ncc2ccnc(N3CCC4(COC4)C3)c2n1` [Example 88, N-(2-methoxy-4-(1-methyl-1H-pyrazol-4-yl)phenyl)-8-(2-oxa-6-azaspiro[3.4]oxtan-6-yl)pyrido[3,4-d]pyrimidin-2-amine]: the IC50 amounted to 3 nM. For the molecule `COc1nc(-c2cnn(C)c2C)ccc1Nc1ncc2ccnc(NCC(C)(C)OC)c2n1` [Example 165, N^2-(6-(1,5-dimethyl-1H-pyrazol-4-yl)-2-methoxypyridin-3-yl)-N^8-(2-methoxy-2-methylpropyl)pyrido[3,4-d]pyrimidine-2,8-diamine], the IC50 came out at 3 nM. The result for `CC(C)(C)CNc1nccc2cnc(Nc3ccc(N4CCOCC4)cc3Cl)nc12` [Example 174, N2-(2-chloro-4-morpholinophenyl)-N8-neopentylpyrido[3,4-d]pyrimidine-2,8-diamine] reads 10 nM; that for `CCOc1cc(-c2nncn2C)ccc1Nc1ncc2ccnc(NCC(C)(C)OC)c2n1` [Example 188], 2 nM; that for `COc1cc(-c2cnn(C)c2)ccc1Nc1ncc2ccnc(NS(=O)(=O)C(C)(C)C)c2n1` [Example 107, N-(2-(2-methoxy-4-(1-methyl-1H-pyrazol-4-yl)phenylamino)pyrido[3,4-d]pyrimidin-8-yl)-2-methylpropane-2-sulfonamide], 39 nM. The result for `COc1cc(-c2cnn(C)c2C)ccc1Nc1ncc2ccnc(N3CCC4(COC4)C3)c2n1` [Example 145, N-(4-(1,5-dimethyl-1H-pyrazol-4-yl)-2-methoxyphenyl)-8-(2-oxa-6-azaspiro[3.4]octan-6-yl)pyrido[3,4-d]pyrimidin-2-amine] reads 2 nM; that for `COc1cc(-c2cncn2C)ccc1Nc1cc2c(-c3cnn(C)c3)cccc2cn1` [Example 14, N-(2-methoxy-4-(1-methyl-1H-imidazol-5-yl)phenyl)-5-(1-methyl-1H-pyrazol-4-yl)isoquinolin-3-amine], 7 nM; that for `COc1cc(-c2cnn(C)c2)ccc1Nc1ncc2ccnc(NC(CO)CO)c2n1` [Example 130, 2-(2-(2-Methoxy-4-(1-methyl-1H-pyrazol-4-yl)phenylamino)pyrido[3,4-d]pyrimidin-8-ylamino)propane-1,3-diol], 4 nM. The result for `COCCn1cc(-c2cccc3cnc(Nc4ccc(C(=O)N5CC(OC)C5)cc4OC)cc23)cn1` [Example 2, (3-methoxy-4-((5-(1-(2-methoxyethyl)-1H-pyrazol-4-yl)isoquinolin-3-yl)amino)phenyl)(3-methoxyazetidin-1-yl)methanone] reads 14 nM; that for `COc1cc(-c2cnn(C)c2)ccc1Nc1ncc2ccnc(N3CC(C#N)C3)c2n1` [Example 121, 1-(2-(2-methoxy-4-(1-methyl-1H-pyrazol-4-yl)phenylamino)pyrido[3,4-d]pyrimidin-8-yl)azetidine-3-carbonitrile], 8 nM; that for `COc1cc(-c2cnn(C)c2C)ccc1Nc1ncc2ccnc(NCC3(C)COC3)c2n1` [Example 146, N^2-(4-(1,5-dimethyl-1H-pyrazol-4-yl)-2-methoxyphenyl)-N^8-((3-methyloxetan-3-yl)methyl)pyrido[3,4-d]pyrimidine-2,8-diamine], 4 nM. As to `COc1cc(C(=O)N2CC(OC)C2)ccc1Nc1ncc2ccnc(NCC(C)(C)C)c2n1` [Example 153, (3-methoxy-4-(8-(neopentylamino)pyrido[3,4-d]pyrimidin-2-ylamino)phenyl)(3-methoxyazetidin-1-yl)methanone], the IC50 came out at 4 nM. Then `COc1cc(-c2c(C)noc2C)ccc1Nc1cc2c(-c3cnn(C)c3)cccc2cn1` [Example 18, N-(4-(3,5-dimethylisoxazol-4-yl)-2-methoxyphenyl)-5-(1-methyl-1H-pyrazol-4-yl)isoquinolin-3-amine], with 95 nM. Then `N#Cc1ccc(Nc2ncc3ccnc(N4CCC5(COC5)C4)c3n2)c(Cl)c1` [Example 205], with 87 nM. As for `COC(C)(C)CNc1nccc2cnc(Nc3ccc(-c4cnn(C)c4)cc3OC(F)F)nc12` [Example 204], the IC50 amounted to 2 nM. The result for `COc1cc(-c2cnn(C)c2)ccc1Nc1ncc2cc(C3CC3)nc(N3CCC4(COC4)C3)c2n1` [Example 136, 6-Cyclopropyl-N-(2-methoxy-4-(1-methyl-1H-pyrazol-4-yl)phenyl)-8-(2-oxa-6-azaspiro[3.4]octan-6-yl)pyrido[3,4-d]pyrimidin-2-amine] reads 93 nM.

On to `CCOc1cc(-c2nncn2C)ccc1Nc1ncc2cc(C)nc(N3CC4(CCOC4)C3)c2n1` [Example 160, N-(2-ethoxy-4-(4-methyl-4H-1,2,4-triazol-3-yl)phenyl)-6-methyl-8-(6-oxa-2-azaspiro[3.4]octan-2-yl)pyrido[3,4-d]pyrimidin-2-amine], for which the IC50 stood at 3 nM. On to `COc1cc(N2CCOCC2)ccc1Nc1ncc2ccnc(NCC(C)(C)C)c2n1` [Example 52, N2-(2-methoxy-4-morpholinophenyl)-N8-neopentyprido[3,4-d]pyrimidine-2,8-diamine], for which the IC50 was 8 nM. Then `COc1cc(C(=O)N2CC(OC)C2)ccc1Nc1cc2c(-c3cnn(C(C)C)c3)cccc2cn1` [Example 7, (4-((5-(1-isopropyl-1H-pyrazol-4-yl)isoquinolin-3-yl)amino)-3-methoxyphenyl)(3-methoxyazetidin-1-yl)methanone], with 11 nM; and `COC1CN(C(=O)c2ccc(Nc3cc4c(-c5cnn(C)c5)cccc4cn3)c(Cl)c2)C1` [Example 22], with 100 nM; and `COc1cc(N2CCCCC2)ccc1Nc1ncc2ccnc(NCC(C)(C)C)c2n1` [Example 171, N2-(2-methoxy-4-(piperidin-1-yl)phenyl)-N8-neopentylpyrido[3,4-d]pyrimidine-2,8-diamine], with 65 nM. The result for `COc1nc(S(C)(=O)=O)ccc1Nc1ncc2ccnc(NCC(C)(C)C)c2n1` [Example 46, N2-(2-methoxy-6-(methylsulfonyl)pyridin-3-yl)-N8-neopentylpyrido[3,4-d]pyrimidine-2,8-diamine] reads 17 nM; that for `COc1cc(-c2cnn(C)c2)ccc1Nc1ncc2ccnc(NCC(C)(F)F)c2n1` [Example 84, N8-(2,2-difluoropropyl)-N2-(2-methoxy-4-(1-methyl-1H-pyrazol-4-yl)phenyl)pyrido[3,4-d]pyrimidine-2,8-diamine], 14 nM; that for `COc1cc(C(=O)N(C)C)ccc1Nc1cc2c(-c3cnn(C)c3)cccc2cn1` [Example 25], 28 nM. In the case of `COc1cc(-c2nncn2C)ccc1Nc1ncc2c(C)cnc(NCC3(C)CCOC3)c2n1` (stereo not drawn) [Example 156, N^2-(2-methoxy-4-(4-methyl-4H-1,2,4-triazol-3-yl)phenyl)-5-methyl-N^8-((3-methyltetrahydrofuran-3-yl)methyl)pyrido[3,4-d]pyrimidine-2,8-diamine], the IC50 was 5 nM. The result for `COc1cc(-c2nnnn2C)ccc1Nc1ncc2ccnc(NCC(C)(C)OC)c2n1` [Example 163, N^8-(2-Methoxy-2-methylpropyl)-N^2-(2-methoxy-4-(1-methyl-1H-tetrazol-5-yl)phenyl)pyrido[3,4-d]pyrimidine-2,8-diamine] reads 2 nM.
